In patent US20260183311A1, “COMPOUNDS DERIVED FROM STEROLS FOR THE TREATMENT OF A DISEASE ASSOCIATED WITH A MITOCHONDRIAL DEFICIT” (DENDROGENIX, priority 2022, published 2026):
“Also recorded” adds a separate entry of the source.

Legend:
[1] = system: Neuro-2a cells; assay: MitoTracker study of mitochondria in Neuro-2a cells after ethanol intoxication; type: cell-based, mouse; conditions: after 24 h of ethanol intoxication (500 mm); FIG. 2C
[2] = system: Neuro-2a cells; assay: Test of metabolic activity (MTT) on Neuro-2a cells after ethanol (EtOH) intoxication; type: cell-based, mouse; conditions: for metabolic activity after EtOH intoxication relative to untreated cells (MTT): 24 h treatment with 100 nM, EtOH 200 mM and 500 mM, FIG. 2B
Method: (§1) A test based on the metabolic activity of the neurons was performed to evaluate the effect of the compounds of formula (I) on this metabolic activity. This test is based on the use of the tetrazolium salt MTT (3-(4,5-dimethylthiazol-2-yl)-2,5-diphenyltetrazolium bromide). Tetrazolium is reduced by mitochondrial succinate dehydrogenase in active live cells to formazan, a purple-colored precipitate. The amount of precipitate formed is proportional to the metabolic activity present in the culture. Thus, spectroscopic assay of the optical density at 550 nm makes it possible to determine the relative amount of metabolic activity and consequently the mitochondrial activity. This test on cortical neuron cultures was performed with different compounds in reference to Table 2 (DX101, DX243, DX244, DX245, DX249, DX301, DX302 and DX401) used at the same concentration (100 nM).
The same test described in Example 1 was performed on Neuro-2a cells—a mouse neuroblastoma cell line. It was shown that 24 h of intoxication with ethanol (EtOH) at high concentration (500 mM) in this cell line reduced the metabolic activity of these cells (χ=P value <0.0001 relative to the control).

[3] = system: SHSY5y; assay: Test of mitochondrial dynamics (Mitotracker labeling) on SHSY5Y cell line; type: cell-based, human; conditions: 24 h, different concentrations, FIG. 3
Method: (§2) A human neuroblastoma cell line (SHSY5y) and also a myoblast cell line (C2C12) were cultured in DMEM™ medium (Ref. 21068028 ThermoFisher Scientific). Once in culture, these two cell lines were treated for 24 h with different concentrations of the compound DX243. A series of images was taken, labeling with Mitotracker™ (Ref. M7512, ThermoFisher Scientific), which highlights and visualizes the mitochondria present in these cells, and enables quantification of their amount.

[4] = system: Neuro-2a cells; assay: Test of relative metabolic activity (MTT) on Neuro-2a cells under normal conditions; type: cell-based, mouse; conditions: physiological conditions; 24 h; two concentrations; FIG. 2A
Method: as §1
The same test described in Example 1 was performed on Neuro-2a cells—a mouse neuroblastoma cell line. Under physiological conditions, once cultured and at about 50% confluence, Neuro-2a cells were placed in contact for 24 h with two concentrations of the compounds DX243 and DX245.

[5] = system: mitochondrial fission gene drp1; assay: Inhibition of mitochondrial fission on cochlear explants (qRT-PCR); type: cell-based, mice; conditions: 100 nM; 24 h; relative to untreated cochleae; FIG. 4
Method: A cochlear explant model was developed. To obtain cochleae, the organ of hearing, in culture, cochleae from 3-day-old mice were microdissected. These cochleae were then placed in DMEM medium with addition of glucose (0.5%), N1 (0.5%), insulin (0.25%) and penicillin (0.1%), for 24 h. 100 nM of the compound DX243 were then added to this culture medium for 24 h. The cochleae were then recovered and the RNA extracted therefrom, so as to be able to analyze the modulation of several genes following treatment with the compound DX243.

[6] = system: dopaminergic neurons; assay: Mitochondrial stress in dopaminergic neurons treated with MPP+; type: cell-based, rat; conditions: 10 nM; FIG. 6
Method: (§3) The mitochondrial effects of compound DX243 were tested in a model of dopaminergic neurons treated with MPP+ (1-methyl-4-phenylpyridinium), a mitochondrial toxin that increases mitochondrial stress and reduces the number of mitochondria. MPP+ is known for its deleterious effects on mitochondria (increased mitochondrial stress measured by the amount of cytochrome C, reduced mitochondrial number measured by means of the Mitotracker test). Dopaminergic neurons were obtained from microdissection of the midbrain of rat embryos cultured with Neurobasal™ Medium (Ref. 21103049 ThermoFisher Scientific) supplemented with B27 supplement 50× (Ref. 17504044 ThermoFisher Scientific), penicillin/streptomycin, L-glutamine and also BDNF (brain-derived neurotrophic factor) and GDNF (glial cell-derived neurotrophic factor).
(§4) These neurons were cultured for 5 days and then treated for 48 h with MPP+. These neurons were also exposed to different concentrations of the compound DX243 during the 48 h of MPP+ treatment, and also 48 h after MPP+ removal.

[7] = system: C2C12; assay: Test of mitochondrial dynamics (Mitotracker labeling) on C2C12 cell line; type: cell-based; conditions: 24 h, different concentrations, FIG. 3
Method: as §2

[8] = system: hippocampal neurons; assay: Mitochondrial stress in hippocampal neurons treated with peptide Aβ 1-42; type: cell-based; conditions: 1 nM, FIG. 7
Method: The mitochondrial effects of compound DX243 were tested in a model of hippocampal neurons treated with peptide Aβ 1-42, this peptide inducing mitochondrial stress (represented by a reduction in mitochondrial surface area).

[9] = system: dopaminergic neurons; assay: Mitochondrial dynamics (mitochondrial mass) in dopaminergic neurons treated with MPP+; type: cell-based, rat; conditions: MPP+ 48 h; different concentrations during MPP+ and 48 h after removal; FIG. 5
Method: as §3, §4

Compound	mitochondrial surface area (MitoTracker) [1]	metabolic activity after EtOH intoxication (MTT) ([2]; 24 h EtOH 500 mM, 24 h treatment with 1 nM)	metabolic activity after EtOH intoxication relative to untreated cells (MTT) [2]	mitochondrial amount (mass), Mitotracker labeling [3]	metabolic activity of Neuro-2a cells (MTT) [4]	expression of drp1 mRNA (qRT-PCR) [5]	mitochondrial stress engendered by MPP+ treatment [6]	mitochondrial amount (mass), Mitotracker labeling [7]	mitochondrial surface area [8]	mitochondrial mass [9]
CC(C)CCC[C@@H](C)[C@H]1CC[C@H]2[C@@H]3C[C@@H](NCCCNCCCCN)[C@@]4(O)C[C@@H](O)CC[C@]4(C)[C@H]3CC[C@]12C [DX243, 5α-hydroxy-6β-[3-(4-aminobutylamino)propylamino]cholestan-3β-ol]	increase in mitochondrial surface area	partially recovered	significantly greater metabolic activity	increase in mitochondrial amount (mass)	increase in the metabolic activity	reduction in drp1 mRNA; also recorded: inhibition of expression	reduction in mitochondrial stress	increase in mitochondrial amount (mass)	restoring this decrease in mitochondrial surface area	increasing and restoring mitochondrial mass
CC(C)CCCC(C)[C@H]1CCC2C3C[C@@H](NCCCCNCCCN)[C@@]4(O)C[C@@H](O)CC[C@]4(C)C3CC[C@@]21C (stereo partly drawn) [DX245]	–	–	significantly greater metabolic activity	–	increase in the metabolic activity	–	–	–	–	–
